The assay deals with L1210 leukemia ip in BDF1 mice, survival T/C. Kind of assay: NCI In Vivo Anticancer Drug Screen. Data for tumor model L1210 Leukemia (intraperitoneal) in B6D2F1 (BDF1) mice. As to conditions: endpoint: mean survival time, higher = longer survival. Put shortly: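 Mice bearing the transplanted tumor received compound or vehicle. Survival of the treated group was divided by that of the vehicle-treated control group to give the ratio.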

The mark [1] stands for this setting: dose: 100.0 mg/kg/injection, schedule: Q01DX001 (ip), vehicle: saline.
Setting [2] is: dose: 100.0 mg/kg/injection, schedule: Q01DX009 (ip), vehicle: Klucel (hydroxypropylcellulose) (HPC).
Where [3] appears, read: dose: 100.0 mg/kg/injection, schedule: Q01DX009 (ip), vehicle: saline.
Where [4] appears, read: dose: 100.0 mg/kg/injection, schedule: Q04DX003 (ip), vehicle: Klucel (hydroxypropylcellulose) (HPC).
Setting [5] is: dose: 200.0 mg/kg/injection, schedule: Q04DX003 (ip), vehicle: Klucel (hydroxypropylcellulose) (HPC).
Where [6] appears, read: dose: 400.0 mg/kg/injection, schedule: Q04DX003 (ip), vehicle: Klucel (hydroxypropylcellulose) (HPC).
[7] abbreviates: dose: 200.0 mg/kg/injection, schedule: Q01DX001 (ip), vehicle: saline.
[8] abbreviates: dose: 200.0 mg/kg/injection, schedule: Q01DX009 (ip), vehicle: Klucel (hydroxypropylcellulose) (HPC).
Where [9] appears, read: dose: 400.0 mg/kg/injection, schedule: Q01DX009 (ip), vehicle: Klucel (hydroxypropylcellulose) (HPC).
Setting [10] is: dose: 100.0 mg/kg/injection, schedule: Q01DX009 (ip), vehicle: saline with Tween-80.
[11] abbreviates: dose: 200.0 mg/kg/injection, schedule: Q01DX009 (ip), vehicle: saline with Tween-80.
The mark [12] stands for this setting: dose: 100.0 mg/kg/injection, schedule: Q04DX002 (ip), vehicle: saline.
[13] abbreviates: dose: 200.0 mg/kg/injection, schedule: Q04DX002 (ip), vehicle: saline.
[14] abbreviates: dose: 50.0 mg/kg/injection, schedule: Q01DX001 (ip), vehicle: saline.
The mark [15] stands for this setting: dose: 100.0 mg/kg/injection, schedule: Q01DX001 (ip), vehicle: carboxymethylcellulose (CMC).
The mark [16] stands for this setting: dose: 200.0 mg/kg/injection, schedule: Q01DX001 (ip), vehicle: carboxymethylcellulose (CMC).
Setting [17] is: dose: 100.0 mg/kg/injection, schedule: Q04DX003 (ip), vehicle: saline with Tween-80.
The mark [18] stands for this setting: dose: 200.0 mg/kg/injection, schedule: Q04DX003 (ip), vehicle: saline with Tween-80.
The mark [19] stands for this setting: dose: 400.0 mg/kg/injection, schedule: Q04DX003 (ip), vehicle: saline with Tween-80.

SMILES strings stand for the structures. Where “and” joins values, the source holds several entries; their conditions need not be identical. Equal values may be shown once. Toxic doses and inconclusive results are not listed.

With `COC1=C(Br)[C@H](O)[C@](O)(CC#N)C=C1Br`, the T/C is, setting by setting: (dose: 12.5 mg/kg/injection, schedule: Q01DX009 (ip), vehicle: saline) 97 % of control; (dose: 25.0 mg/kg/injection, schedule: Q01DX001 (ip), vehicle: Klucel (hydroxypropylcellulose) (HPC)) 97 % of control; (dose: 25.0 mg/kg/injection, schedule: Q01DX009 (ip), vehicle: Klucel (hydroxypropylcellulose) (HPC)) 101 % of control; (dose: 25.0 mg/kg/injection, schedule: Q01DX009 (ip), vehicle: saline) 110 % of control; (dose: 44.0 mg/kg/injection, schedule: Q01DX001 (ip), vehicle: saline) 103 % of control; (dose: 50.0 mg/kg/injection, schedule: Q01DX001 (ip), vehicle: Klucel (hydroxypropylcellulose) (HPC)) 104 % of control. The T/C is 94 % of control (dose: 50.0 mg/kg/injection, schedule: Q01DX009 (ip), vehicle: Klucel (hydroxypropylcellulose) (HPC)); 107 % of control (dose: 50.0 mg/kg/injection, schedule: Q01DX009 (ip), vehicle: saline); 106 % of control (dose: 66.0 mg/kg/injection, schedule: Q01DX001 (ip), vehicle: saline); 117 % of control and 229 % of control under setting [1]; 108 % of control under setting [2]; 91 % of control under setting [3]. Moreover, the T/C (dose: 150.0 mg/kg/injection, schedule: Q01DX001 (ip), vehicle: saline) was 121 % of control.
Take `CCCCCCCCCCC[CH2][Hg][CH2]CCCCCCCCCCC`: the T/C was 96 % of control under setting [4], 89 % of control under setting [5] and 87 % of control under setting [6].
`Oc1c(Cl)cc(Cl)cc1/C=N/N1CCN(/N=C/c2cc(Cl)cc(Cl)c2O)CC1`: the T/C by setting is: under setting [1], 87 % of control; under setting [7], 87 % of control.
For `CCC(CC)(COS(=O)(=O)c1ccc(C)cc1)COS(=O)(=O)c1ccc(C)cc1`, the T/C under setting [2] was 93 % of control; the T/C under setting [8] is 89 % of control; the T/C under setting [5] was 94 % of control; the T/C under setting [9] was 88 % of control; the T/C under setting [6] is 96 % of control.
For the compound `CC1(c2ccccc2)OCC(CCl)O1` (stereo unspecified), the T/C runs as follows: (dose: 222.0 mg/kg/injection, schedule: Q01DX Z (ip), vehicle: saline) 95 % of control; (dose: 333.0 mg/kg/injection, schedule: Q01DX Z (ip), vehicle: saline) 95 % of control; (dose: 500.0 mg/kg/injection, schedule: Q01DX Z (ip), vehicle: saline) 91 % of control.
Turning to `O=C(N/N=C\c1ccc([N+](=O)[O-])cc1)c1ccccc1`, the T/C under setting [10] is 97 % of control; the T/C under setting [11] was 94 % of control; the T/C (dose: 400.0 mg/kg/injection, schedule: Q01DX009 (ip), vehicle: saline with Tween-80) is 93 % of control.
As to `CCC(NC(=O)CCl)C(=O)O` (stereo unspecified), the T/C runs as follows: under setting [12], 120 % of control; under setting [13], 103 % of control.
For `CCOP(=O)(OCC)OCc1cnc(SC)nc1N`, the T/C was 99 % of control under setting [14] and 108 % of control under setting [1].
On to `O=C1OCC/C1=C\c1ccccc1`, for which the T/C under setting [15] is 91 % of control and the T/C under setting [16] is 94 % of control.
On to `O=NN(CCF)C(=O)NC1CCSCC1`, for which the T/C is, setting by setting: (dose: 24.0 mg/kg/injection, schedule: Q01DX001 (ip), vehicle: other) 334 % of control; (dose: 36.0 mg/kg/injection, schedule: Q01DX001 (ip), vehicle: other) 344 % of control; (dose: 54.0 mg/kg/injection, schedule: Q01DX001 (ip), vehicle: other) 344 % of control.
In the case of `Nc1cnccc1Nc1ccncc1`, the T/C reads like this: under setting [17], 96 % of control; under setting [18], 96 % of control.
As for `CC(C)(C)C1CCC2(CC1)CCN(N1CCCCCC1)CC2`, the T/C (dose: 50.0 mg/kg/injection, schedule: Q01DX001 (ip), vehicle: carboxymethylcellulose (CMC)) is 101 % of control; the T/C under setting [15] is 111 % of control; the T/C under setting [16] was 95 % of control; the T/C (dose: 400.0 mg/kg/injection, schedule: Q01DX001 (ip), vehicle: carboxymethylcellulose (CMC)) was 103 % of control.
Turning to `CCOC(=O)c1cc(=O)n(-c2ccc([N+](=O)[O-])cc2)n1C`, the T/C is 94 % of control under setting [17], 92 % of control under setting [18] and 94 % of control under setting [19].
Turning to `O=C(O)CCC(=O)Nc1ccc(S(=O)(=O)Nc2nccs2)cc1`, the T/C by setting is: (dose: 3.5 mg/kg/injection, schedule: Q01DX009 (ip), vehicle: Klucel (hydroxypropylcellulose) (HPC)) 93 % of control; (dose: 5.3 mg/kg/injection, schedule: Q01DX009 (ip), vehicle: Klucel (hydroxypropylcellulose) (HPC)) 93 % of control; (dose: 8.0 mg/kg/injection, schedule: Q01DX009 (ip), vehicle: Klucel (hydroxypropylcellulose) (HPC)) 91 % of control; under setting [2], 94 % of control; under setting [4], 101 % of control; under setting [8], 98 % of control. Further, the T/C runs as follows: under setting [5], 103 % of control; under setting [9], 94 % of control; under setting [6], 97 % of control.
Regarding `CCNC(=O)NC(=O)C(C)(C)Oc1ccc(Cl)cc1`, the T/C (dose: 50.0 mg/kg/injection, schedule: Q01DX009 (ip), vehicle: saline with Tween-80) was 103 % of control; the T/C under setting [10] is 92 % of control; the T/C under setting [11] was 96 % of control.
As for `O=C(Nc1ccccc1)c1ccc2c(c1)C(=O)N(c1ccccc1)C2=O`, the T/C was 90 % of control under setting [12] and 87 % of control under setting [13].
For the compound `CCCCCn1c(C)cc(/C=C\c2ccc3cc(C)ccc3[n+]2C)c1C`, the T/C is 94 % of control (dose: 0.5 mg/kg/injection, schedule: Q01DX001 (ip), vehicle: carboxymethylcellulose (CMC)); 116 % of control (dose: 0.5 mg/kg/injection, schedule: Q01DX009 (ip), vehicle: saline sonified); 98 % of control (dose: 0.5 mg/kg/injection, schedule: Q04DX003 (ip), vehicle: saline sonified); 101 % of control (dose: 0.66 mg/kg/injection, schedule: Q01DX009 (ip), vehicle: saline); 97 % of control (dose: 1.0 mg/kg/injection, schedule: Q01DX001 (ip), vehicle: carboxymethylcellulose (CMC)); 100 % of control (dose: 1.0 mg/kg/injection, schedule: Q01DX009 (ip), vehicle: saline). Besides, the T/C was 97 % of control (dose: 1.0 mg/kg/injection, schedule: Q04DX003 (ip), vehicle: saline sonified); 92 % of control (dose: 1.5 mg/kg/injection, schedule: Q01DX009 (ip), vehicle: saline); 97 % of control (dose: 2.0 mg/kg/injection, schedule: Q01DX001 (ip), vehicle: carboxymethylcellulose (CMC)); 106 % of control (dose: 2.0 mg/kg/injection, schedule: Q04DX003 (ip), vehicle: saline sonified).
With `CC(C)(C)CC(C)(C)c1ccc(OCCOc2ccccc2NC(=O)c2ccc3ccccc3c2O)cc1`, the T/C by setting is: under setting [17], 98 % of control; under setting [18], 103 % of control; under setting [19], 86 % of control.
For `Nc1ccc(/C=C\C2(CCl)OCCO2)cc1`, the T/C reads like this: under setting [14], 100 % of control; under setting [1], 97 % of control; under setting [7], 103 % of control; (dose: 400.0 mg/kg/injection, schedule: Q01DX001 (ip), vehicle: saline) 94 % of control.
`CC(C)Oc1c(N(C)CCO)c2cc(Cl)ccc2oc1=O`: the T/C is 95 % of control under setting [17] and 101 % of control under setting [18].
Take `CC(C)(C)C1CCC(S(C)(=O)=O)C(Cl)C1` (stereo unspecified): the T/C is 110 % of control under setting [3]; 102 % of control (dose: 100.0 mg/kg/injection, schedule: Q04DX003 (ip), vehicle: saline); 106 % of control (dose: 200.0 mg/kg/injection, schedule: Q01DX009 (ip), vehicle: saline); 96 % of control (dose: 200.0 mg/kg/injection, schedule: Q04DX003 (ip), vehicle: saline); 102 % of control (dose: 400.0 mg/kg/injection, schedule: Q01DX009 (ip), vehicle: saline); 105 % of control (dose: 400.0 mg/kg/injection, schedule: Q04DX003 (ip), vehicle: saline).

The values above are taken from PubChem BioAssay AID248 (DTP/NCI, 2004).
